Data set [1] deals with isolated rat epididymal adipocytes. In words: Glucose transport assay (2-DOG uptake). The data set is classed as cell-based.
A further data set has as its system IRS-1. The data set is described as follows: Phosphorylation of IRS-1 in adipose tissue of treated diabetic mice. The data set is classed as in vivo, mouse. As to conditions: 2 weeks of DHH105 treatment. As to the method: (§1) Adipocytes treated with DHH105 for 2 h or insulin for 10 min were homogenized in 5 ml lysis buffer (20 mM Tris, pH 7.4, 1% SDS, 10% glycerol, 150 mM NaCl, 2 mM EDTA, 20 mM NaF, 1 mM NaVO4, 2 mM sodium pyrophosphate, protease inhibitor cocktail, and phosphatase inhibitor cocktail) with a teflon pestle (15 strokes). Homogenized adipocytes were sonicated for 3 min and solubilized for 30 min. The homogenate was centrifuged at 3,000 g for 10 min at 4° C. The protein concentration of the lysate was determined by the Bradford method. After dilution (1 μg/μl protein concentration), the lysates were incubated with anti-insulin receptor-β (IR-β) antibody (Upstate Biotech, Charlottesville, Va.) or anti-IRS-1 antibody (Upstate Biotech) overnight at 4° C. Protein A Sepharose beads (100 μl, Amersham Pharmacia Biotech) were added and the mixture was gently rocked for 2 h at 4° C. […] The membranes were washed and the immunoreactive proteins were detected with an enhanced chemoluminescence western blot detection kit (Amersham Pharmacia Biotech). To examine whether in vivo treatment of STZ-induced diabetic C57BL/6 mice or ob/ob mice with DHH105 also increases phosphorylation of IR-β, and IRS-1, fat tissue was removed from the mice after 2 weeks of DHH105 treatment and phosphorylation of IR-β and IRS-1 was measured by immunoprecipitation and western blot.

Data set [2] concerns the target T1, IR-β (Rattus norvegicus, UniProt P15127).
T1 construct: DHH105-treated adipocytes from SD rats; endogenous in cells; host or cells: adipocytes from SD rats
The data set is described as follows: Phosphorylation of IR-β in adipocytes, immunoprecipitation and western blot. The data set is classed as cell-based. The conditions noted are these: SD rat adipocytes, DHH105 2 h, vs untreated control. As to the method: Adipocytes treated with DHH105 for 2 h or insulin for 10 min were homogenized in 5 ml lysis buffer (20 mM Tris, pH 7.4, 1% SDS, 10% glycerol, 150 mM NaCl, 2 mM EDTA, 20 mM NaF, 1 mM NaVO4, 2 mM sodium pyrophosphate, protease inhibitor cocktail, and phosphatase inhibitor cocktail) with a teflon pestle (15 strokes). Homogenized adipocytes were sonicated for 3 min and solubilized for 30 min. The homogenate was centrifuged at 3,000 g for 10 min at 4° C. The protein concentration of the lysate was determined by the Bradford method. After dilution (1 μg/μl protein concentration), the lysates were incubated with anti-insulin receptor-β (IR-β) antibody (Upstate Biotech, Charlottesville, Va.) or anti-IRS-1 antibody (Upstate Biotech) overnight at 4° C. Protein A Sepharose beads (100 μl, Amersham Pharmacia Biotech) were added and the mixture was gently rocked for 2 h at 4° C. […] The membranes were washed and the immunoreactive proteins were detected with an enhanced chemoluminescence western blot detection kit (Amersham Pharmacia Biotech). To examine whether DHH105 treatment increases autophosphorylation of the insulin receptor and its tyrosine kinase activity, the phosphorylation of IR-β and IRS-1 were measured by immunoprecipitation and western blot in DHH105-treated adipocytes from SD rats. […]
Background: A western blot detects proteins with antibodies after separation by electrophoresis.

The target in data set [3] is T2, IR-β (Mus musculus, UniProt P15208).
T2 construct: from tissue; host or cells: fat (adipose) tissue of STZ-induced diabetic C57BL/6 mice and ob/ob mice
T2 sequence (P15208 753-1372 limits assumed): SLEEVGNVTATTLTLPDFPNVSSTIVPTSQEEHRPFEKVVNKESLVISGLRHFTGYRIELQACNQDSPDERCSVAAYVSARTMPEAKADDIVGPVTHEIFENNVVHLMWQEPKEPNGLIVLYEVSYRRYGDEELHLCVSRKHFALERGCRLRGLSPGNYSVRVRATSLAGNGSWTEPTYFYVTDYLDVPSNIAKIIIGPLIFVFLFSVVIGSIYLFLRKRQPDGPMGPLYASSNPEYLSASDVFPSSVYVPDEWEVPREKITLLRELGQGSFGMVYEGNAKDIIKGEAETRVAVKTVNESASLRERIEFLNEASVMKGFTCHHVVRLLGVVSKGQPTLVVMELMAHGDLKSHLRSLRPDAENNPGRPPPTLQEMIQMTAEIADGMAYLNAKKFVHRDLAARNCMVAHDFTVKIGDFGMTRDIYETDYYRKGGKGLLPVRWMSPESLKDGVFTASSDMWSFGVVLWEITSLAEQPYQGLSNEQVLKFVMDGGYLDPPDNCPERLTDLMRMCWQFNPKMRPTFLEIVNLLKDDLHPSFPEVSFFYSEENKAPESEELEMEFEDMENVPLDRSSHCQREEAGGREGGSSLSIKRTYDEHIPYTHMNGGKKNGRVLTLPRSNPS
T2 sequence (P15208 28-748 limits assumed): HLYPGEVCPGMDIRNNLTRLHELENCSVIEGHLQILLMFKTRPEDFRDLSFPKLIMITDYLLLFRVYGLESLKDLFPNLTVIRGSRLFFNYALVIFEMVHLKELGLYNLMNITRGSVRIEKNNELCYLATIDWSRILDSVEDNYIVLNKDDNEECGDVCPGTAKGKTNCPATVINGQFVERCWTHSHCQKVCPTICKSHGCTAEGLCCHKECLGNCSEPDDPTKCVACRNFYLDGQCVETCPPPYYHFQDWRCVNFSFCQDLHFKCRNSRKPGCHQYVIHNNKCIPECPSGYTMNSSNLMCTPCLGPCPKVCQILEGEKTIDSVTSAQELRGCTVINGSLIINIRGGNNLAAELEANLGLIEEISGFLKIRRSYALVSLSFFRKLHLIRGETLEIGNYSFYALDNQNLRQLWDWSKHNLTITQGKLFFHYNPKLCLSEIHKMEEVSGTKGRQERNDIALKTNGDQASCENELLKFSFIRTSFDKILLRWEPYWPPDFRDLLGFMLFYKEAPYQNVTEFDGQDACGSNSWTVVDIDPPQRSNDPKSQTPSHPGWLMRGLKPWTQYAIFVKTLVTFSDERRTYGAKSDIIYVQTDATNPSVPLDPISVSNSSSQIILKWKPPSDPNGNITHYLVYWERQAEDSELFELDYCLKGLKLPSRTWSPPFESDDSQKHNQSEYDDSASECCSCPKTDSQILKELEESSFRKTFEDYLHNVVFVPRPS
The data set is described as follows: Phosphorylation of IR-β in adipose tissue of treated diabetic mice. In kind it is in vivo. As to conditions: 2 weeks of DHH105 treatment. As to the method:
as §1

The nature of data set [4]: Body weight and gross liver observation in DHH105-treated mice. In kind it is in vivo, mouse. As to the method:
First, the effect of DHH105 on the non-fasting blood glucose level in ob/ob mice, an animal model of type 2 diabetes, was examined in vivo. […] DHH105 was dissolved in DMSO and emulsified in olive oil (1:50 v/v). DHH105, at a dose of 150 mg/kg body weight (b.w.) in 100 μl, was injected intraperitoneally (i.p.) every day into diabetic ob/ob mice (blood glucose level>230 mg/dl) and STZ-treated diabetic C57BL/6 mice (blood glucose level>300 mg/dl). Control mice received the same amount of olive oil without DHH105. Blood glucose levels were measured with a glucometer (One Touch Ultra, Lifescan, Milpitas, Calif.) every morning between 9:00–10:00 a.m. just before injection of DHH105.

[5] abbreviates: 500 μM, 4 h, 2-DOG 0.125 to 10.0 mM, Lineweaver-Burk.
Where [6] appears, read: STZ-induced diabetic C57BL/6 mice.

T1 sequence (P15127 764-1383 limits assumed): as the sequence (P15208 753-1372 limits assumed) above, with L13P, V21I, V26A, Q30H, D69E, C72S, S73G, A288V, G580C counted along it
T1 sequence (P15127 27-759 limits assumed): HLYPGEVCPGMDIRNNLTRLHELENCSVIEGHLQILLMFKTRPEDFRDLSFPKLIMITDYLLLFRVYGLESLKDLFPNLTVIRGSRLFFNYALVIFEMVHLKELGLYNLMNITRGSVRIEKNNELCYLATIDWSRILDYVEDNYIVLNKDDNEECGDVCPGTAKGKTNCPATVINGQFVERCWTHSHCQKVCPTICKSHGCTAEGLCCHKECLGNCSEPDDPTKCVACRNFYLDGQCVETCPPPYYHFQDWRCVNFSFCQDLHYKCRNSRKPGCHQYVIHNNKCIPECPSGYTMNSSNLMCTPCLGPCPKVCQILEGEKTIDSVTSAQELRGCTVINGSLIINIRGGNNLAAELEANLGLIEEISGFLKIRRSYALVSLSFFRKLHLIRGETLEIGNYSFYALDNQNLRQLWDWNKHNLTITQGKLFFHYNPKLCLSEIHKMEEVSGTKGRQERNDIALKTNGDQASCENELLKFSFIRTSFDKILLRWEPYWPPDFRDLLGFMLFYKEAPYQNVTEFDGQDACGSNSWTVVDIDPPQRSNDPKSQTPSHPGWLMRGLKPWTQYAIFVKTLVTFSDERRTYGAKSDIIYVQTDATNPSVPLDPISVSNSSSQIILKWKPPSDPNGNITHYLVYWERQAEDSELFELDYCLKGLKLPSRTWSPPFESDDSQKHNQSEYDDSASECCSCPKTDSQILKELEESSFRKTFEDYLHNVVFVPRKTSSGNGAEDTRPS

Broadly, the Km is the substrate concentration at which the rate is half of its maximum. Regarding `O=C(CCc1ccc(O)c(O)c1)OCc1cccc2ccccc12` [DHH105, 3,4-dihydroxyhydrocinnamic acid naphthalene methyl ester], the “effect on insulin-stimulated glucose transport” value in data set [1] (500 μM DHH105 3.5 h, then insulin 30 min) is “did not influence”. In data set [1] (500 μM, 4 h), the “Km value, DHH105-treated vs control adipocytes” value was “no difference”. Besides, the Km in data set [1] (setting [5]) turned out to be 1780 ± 380 µM. For the same compound, the “Vmax of glucose transport” value in data set [1] (setting [5]) came out at 17.14±0.25 mmol/3 min. Besides, the “Vmax of glucose transport relative to untreated control adipocytes” value in data set [1] (500 μM, 4 h, Lineweaver-Burk) turned out to be 3 fold. Further, the “incubation time from which 2-DOG uptake was increased” value in data set [1] (rat adipocytes, 500 μM) amounted to 1 h. Further, in data set [1] (rat adipocytes, 4 h, DHH105 500 μM, glyburide 25 μM, metformin 250 μM, troglitazone 100 μM), the “increase of glucose transport vs untreated control at optimum concentration” value is on record as 4 fold. In addition, the “concentration at which 2-DOG uptake peaked” value in data set [1] (rat adipocytes, 4 h treatment) worked out at 500 µM. For the same compound, in data set [1] (rat adipocytes, doses of 500 μM or more), the “effect on glucose transport compared with other anti-diabetic drugs” value is given as “significantly higher effect”. Moreover, the “phosphorylation of IRS-1 in adipose tissue” value with IRS-1 (setting [6]) and with IRS-1 (ob/ob mice) was “increased” throughout. For the same compound, the “phosphorylation of IR-β” value at IR-β [2] is reported as “increased”. For the same compound, the “phosphorylation of IR-β in adipose tissue” value on IR-β [3] (setting [6]) and at IR-β [3] (ob/ob mice) was “increased” each time. Also, the “gross lesions of the liver” value in data set [4] (DHH105-treated mice) is “no gross lesions”. For the same compound, the “body weight, treated vs untreated mice” value in data set [4] (DHH105-treated vs untreated mice) is “no differences”.

These data come from patent publication US7192981B2, “3,4-dihydroxyhydrocinnamic acid derivative” (Bionutrigen Co., Ltd., priority 2005, dated 2007).
